# Data: publication PMC9663578, “A fluorogenic probe for predicting treatment response in non-small cell lung cancer with EGFR-activating mutations” (Nature Communications, 2022)
# Values joined by “and” are separate entries in the source; they are usually repeats but may differ in a detail not shown here. Equal entries are not always repeated.
# What was measured:
# [1] = molecular target: BSA (Bos taurus, UniProt P02769); experiment: Fluorescence spectra of HX103 with BSA (Fig. 2c); format: binding
# BSA, sequence (P02769 25-607): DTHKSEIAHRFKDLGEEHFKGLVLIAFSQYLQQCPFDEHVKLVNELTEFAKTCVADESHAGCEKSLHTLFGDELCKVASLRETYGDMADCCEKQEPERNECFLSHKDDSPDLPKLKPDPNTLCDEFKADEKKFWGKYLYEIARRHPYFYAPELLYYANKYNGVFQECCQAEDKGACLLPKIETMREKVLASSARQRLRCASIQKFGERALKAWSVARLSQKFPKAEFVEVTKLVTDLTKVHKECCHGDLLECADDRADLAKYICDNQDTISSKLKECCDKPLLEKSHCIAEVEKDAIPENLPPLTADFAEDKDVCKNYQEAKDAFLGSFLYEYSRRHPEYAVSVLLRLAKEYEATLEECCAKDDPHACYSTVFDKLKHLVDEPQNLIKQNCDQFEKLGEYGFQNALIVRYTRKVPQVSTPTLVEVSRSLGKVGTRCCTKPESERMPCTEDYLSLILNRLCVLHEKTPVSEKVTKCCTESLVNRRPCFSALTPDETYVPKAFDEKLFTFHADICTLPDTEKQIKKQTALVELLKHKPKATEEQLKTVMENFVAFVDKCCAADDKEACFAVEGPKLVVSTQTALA
# [2] = test system: HCC827; experiment: Western blot of EGFR activation and downstream AKT and ERK1/2 phosphorylation; format: cell-based, human
# Procedure: (§1) Western blotting analysis was performed to investigate the expression of EGFR and downstream signaling pathway in various cancer cells. Cells were added at a density of 5 × 10^5 per well in six-well plates and serum-starved in DMEM without FBS. […] After a PBS washing step, the cells were harvested and lysed in RIPA lysis buffer (Thermo Scientific, #89900) on ice for 20 min. After sonication, cell lysates were centrifuged at 12,000×g at 4 °C for 20 min. The supernatant was collected and protein concentration was determined by a BCA protein quantitation kit (Vazyme) and normalized to 2 mg/mL. Subsequently, 20 µL of protein sample was loaded to each lane and resolved on a 10% SDS-PAGE gel. After that, proteins on the gel were transferred onto polyvinylidene difluoride (PVDF) membranes (0.45 µm, Amersham Bioscience). PVDF membranes were blocked with 5% BSA blocking solution for 2 h at room temperature, followed by incubation with different primary antibodies (4 °C, overnight), including EGFR (#4267, 1:1000), phospho-EGFR (#3777, 1:1000), Akt (#4685, 1:1000), phospho-Akt (#4060, 1:1000), ERK1/2 (#4695, 1:1000), phospho-ERK1/2 (#4370, 1:2000) and GAPDH (#5174, 1:2000). Next, the membranes were washed by TBST buffer (Tris buffer with 0.1% Tween-20) for three times, followed by incubation with anti-rabbit IgG (HRP-linked antibody, #7074, 1:5000) for 1 h at room temperature. Finally, the blots were washed in PBST and immunoreactive proteins were detected using a luminal solution with ECL enhancer and H2O2 by ChemiDoc MP (BioRad) with Image Lab 6.0 software. The band density of each band was quantified and normalized to that of the corresponding GAPDH band to correct the possible differences in the content of protein loading. Each experiment was repeated 3 times for statistical analysis, and uncropped blots are in Source Data.
# [3] = test system: Hela; experiment: as above; format: cell-based, human; conditions: HX103 0 to 10 µM, EGF 25 ng/mL
# Procedure: as §1
# [4] = test system: H1975; experiment: as above; format: cell-based, human; conditions: for p-kinase / kinase pAKT/AKT / p-kinase / kinase pEGFR/EGFR / p-kinase / kinase pERK/ERK: Fig. 2h H1975, DMSO = 1, n=1-3
# Procedure: as §1
# [5] = molecular target: T1, EGFR L858R (Homo sapiens, UniProt P00533, L858R); experiment: Fluorescence turn-on response / titration of HX103 with recombinant EGFR;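 for Fluorescence intensity at 570 nm: 100% is HX103 fluorescence with wild-type EGFR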;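 for all read-outs here: fluorescence of the probe measured with recombinant EGFR L858R in PBS carrying 0.1% DMSO, excitation at 440 nm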; format: binding; conditions: for Fluorescence intensity, L858R: Fig. 2c; for Fluorescence response of HX103 to EGFR L858R: Supplementary Fig. 2f
# T1 construct: EGFR L858R (amino acids 668–1210, #PR7447A); purchased Thermo Fisher PR7447A
# Procedure: (§2) (d) Fluorescence spectra change of HX103 (5 µ M) with increasing concentration of EGFR L858R
# (§3) (e) Fluorescence spectra change of HX103 (5 µ M ) with
# (§4) increasing concentration of EGFR 19del (0 to 6 µM) in PBS buffer. (f) Titration curve of HX103
# (§5) (5 µM) with increasing concentration of EGFRs (0 to 6 µM). The apparent binding affinity (Kd)
# (§6) The fluorescence titration curve was fitted on one -
# (§7) site specific binding model. I and I0 represent the intensities of HX103 at 570 nm in the presence
# (§8) and absence of protein. Data represent average val ues ± SD, n = 3 independent experiments per
# (§9) dissolved in dimethyl sulfoxide (DMSO) to obtain stock solutions (10 mM). The prepared stock
# (§10) solution was diluted in sodium phosphate buffer (PBS, 1 M, pH=7.4) to obtain the desired final
# (§11) concentration solution, containing 0.1% (v/v) DMSO as a cosolvent.
# (§12) and emission fluorescence spectra of the solution before/after addition o f different concentration
# (§13) Data analysis：The obtained fluorescence intensity at 570 nm (Excitation wavelength was 440
# (§14) nm) in each sample was normalized by using the fluorescence intensity of HX103 in the presence
# (§15) of EGFR. Specifically, the fluorescence intensity of HX103 in the presence of EGFR wild-type
# (§16) was set at 100% to normalized that of the remaining samples.
# [6] = molecular target: T2, EGFR wild-type (Homo sapiens, UniProt P00533); experiment: Kinase inhibition assay (fluorescent mobility-shift assay); format: biochemical; set-up: Kinase activity: unit not given here; conditions: for Kinase activity: EGFR WT, n=1-3
# T2 construct: Recombinant human EGFR (amino acids 668–1210, #PR7295B); purchased Thermo Fisher PR7295B
# [7] = molecular target: T3, EGFR 19del (Homo sapiens, UniProt P00533, DEL746-750); experiment: Fluorescence turn-on response / titration of HX103 with recombinant EGFR;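 for Fluorescence intensity at 570 nm: 100% is HX103 fluorescence with wild-type EGFR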;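 for Fluorescence response of HX103 to EGFR 19del: ratio I over I0 of probe intensity with versus without protein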; format: binding; conditions: for Fluorescence intensity, DEL19: Fig. 2c; for Fluorescence response of HX103 to EGFR 19del: Supplementary Fig. 2f
# T3 construct: purchased Thermo Fisher PV6179
# Procedure: as §2, §3, §4, §5, §6, §7, §8, §9, §10, §11, §12, §13, §14, §15, §16
# [8] = MTT cytotoxicity assay; format: cell-based; conditions: human, A431 cells, EGFR wild-type, n=3
# [9] = molecular target: T4, EGFR (Homo sapiens, UniProt P00533); experiment: Fluorescence spectra of HX103 with EGFR, alone or with competing inhibitors (Fig. 2a); format: binding
# T4 construct: Recombinant human EGFR (amino acids 668–1210, #PR7295B); purchased Thermo Fisher PR7295B
# [10] = concentration 0.3 (unit not given)
# [11] = concentration 1 (unit not given)
# [12] = concentration 3 (unit not given)
# [13] = concentration 10 (unit not given)
# [14] = HX103 5 µM in PBS buffer (0.1% DMSO), 570 nm
# [15] = HX103 5 µM, EGFR 0 to 6 µM in PBS, one-site specific binding model, read-out: apparent binding affinity (Kd)
smiles,measurement,setting,value
COc1cc2c(Nc3ccc(F)c(Cl)c3)ncnc2cc1OCCCNc1ccc(S(=O)(=O)N(C)C)c2nonc12 [HX103],"Fluorescence intensity, BSA",[1]; wavelength 666 nm,1883.79
same,"Fluorescence intensity, BSA",[1]; wavelength 669 nm,1770.88
same,"Fluorescence intensity, BSA",[1]; wavelength 671 nm,1700.55
same,"Fluorescence intensity, BSA",[1]; wavelength 673 nm,1676.53
same,"Fluorescence intensity, BSA",[1]; wavelength 676 nm,1671.89
same,"Fluorescence intensity, BSA",[1]; wavelength 678 nm,1658.01
same,"Fluorescence intensity, BSA",[1]; wavelength 681 nm,1606.53
same,"Fluorescence intensity, BSA",[1]; wavelength 683 nm,1507.19
same,"Fluorescence intensity, BSA",[1]; wavelength 686 nm,1380.4
same,"Fluorescence intensity, BSA",[1]; wavelength 688 nm,1249.52
same,"Fluorescence intensity, BSA",[1]; wavelength 690 nm,1137.89
same,"Fluorescence intensity, BSA",[1]; wavelength 693 nm,1060.59
same,"Fluorescence intensity, BSA",[1]; wavelength 695 nm,1011.56
same,"Fluorescence intensity, BSA",[1]; wavelength 698 nm,981.361
same,"Fluorescence intensity, BSA",[1]; wavelength 700 nm,960.577
same,p-kinase / kinase pAKT/AKT,"[2]; Fig. 2g HCC827, concentration 0.3 (unit not given), DMSO = 1, n=1-3",0.4984 and 0.298 and 0.4432
same,p-kinase / kinase pAKT/AKT,"[2]; Fig. 2g HCC827, concentration 1 (unit not given), DMSO = 1, n=1-3",0.1684 and 0.1251 and 0.1468
same,p-kinase / kinase pERK/ERK,"[2]; Fig. 2g HCC827, concentration 10 (unit not given), DMSO = 1, n=1-3",0.1947 and 0.3677 and 0.3512
same,effect on phosphorylation of EGFR and downstream proteins,"[2]; HX103 0 to 10 µM, EGF 25 ng/mL",inhibited the phosphorylation of EGFR and the downstream proteins
same,effect on wild-type EGFR phosphorylation,[3],significantly inhibited
same,p-kinase / kinase pAKT/AKT,[4]; [10],0.698 and 0.724 and 0.636
same,p-kinase / kinase pEGFR/EGFR,[4]; [10],0.558 and 0.543 and 0.573
same,p-kinase / kinase pERK/ERK,[4]; [10],1.210 and 0.879 and 1.031
same,p-kinase / kinase pAKT/AKT,[4]; [11],0.488 and 0.317
same,p-kinase / kinase pEGFR/EGFR,[4]; [11],0.199 and 0.313 and 0.331
same,p-kinase / kinase pERK/ERK,[4]; [11],0.535 and 0.443 and 0.459
same,p-kinase / kinase pAKT/AKT,[4]; [12],0.579 and 0.573 and 0.560
same,p-kinase / kinase pERK/ERK,[4]; [12],0.840 and 0.618 and 0.696
same,p-kinase / kinase pAKT/AKT,[4]; [13],0.468 and 0.342 and 0.500
same,p-kinase / kinase pEGFR/EGFR,[4]; [13],0.219 and 0.161 and 0.276
same,p-kinase / kinase pERK/ERK,[4]; [13],0.660 and 0.681 and 0.939
same,effect on phosphorylation of EGFR and downstream proteins,"[4]; HX103 0 to 10 µM, EGF 25 ng/mL",a certain resistance
same,"Fluorescence intensity, L858R",[5]; wavelength 666 nm,4655.85
same,"Fluorescence intensity, L858R",[5]; wavelength 669 nm,4299.18
same,"Fluorescence intensity, L858R",[5]; wavelength 671 nm,3977.08
same,"Fluorescence intensity, L858R",[5]; wavelength 673 nm,3702.64
same,"Fluorescence intensity, L858R",[5]; wavelength 676 nm,3456.05
same,"Fluorescence intensity, L858R",[5]; wavelength 678 nm,3215.71
same,"Fluorescence intensity, L858R",[5]; wavelength 681 nm,2960.24
same,"Fluorescence intensity, L858R",[5]; wavelength 683 nm,2683.28
same,"Fluorescence intensity, L858R",[5]; wavelength 686 nm,2403.9
same,"Fluorescence intensity, L858R",[5]; wavelength 688 nm,2143.64
same,"Fluorescence intensity, L858R",[5]; wavelength 690 nm,1924.01
same,"Fluorescence intensity, L858R",[5]; wavelength 693 nm,1757.52
same,"Fluorescence intensity, L858R",[5]; wavelength 695 nm,1633.62
same,"Fluorescence intensity, L858R",[5]; wavelength 698 nm,1538.11
same,"Fluorescence intensity, L858R",[5]; wavelength 700 nm,1456.78
same,Fluorescence intensity at 570 nm,"[5]; Fig. 2d, HX103 with EGFR L858R, n=1-3",94.4744 and 115.569 and 99.2784
same,fluorescence turn-on response,[5]; [14],high fluorescence
same,Kd,[5]; [15],0.8 ± 0.3 µM
same,Fluorescence response of HX103 to EGFR L858R,"[5]; EGFR 1 µM, n=1-3",6.4875 and 6.559 and 3.424
same,Fluorescence response of HX103 to EGFR L858R,"[5]; EGFR 2 µM, n=1-3",8.6 and 6.836 and 4.376
same,Fluorescence response of HX103 to EGFR L858R,"[5]; EGFR 5 µM, n=1-3",8.998 and 10.1242 and 7.156
same,Fluorescence response of HX103 to EGFR L858R,"[5]; EGFR 6 µM, n=1-3, 0 at EGFR 0",9.745 and 11.2537 and 8.24
same,Kinase activity,[6]; Log [HX103 (M)] -7,3.448 and 5.933 and 4.591
same,Kinase activity,[6]; Log [HX103 (M)] -7.5,17.07 and 12.53 and 15.46
same,Kinase activity,[6]; Log [HX103 (M)] -8,28.39 and 28.36 and 28.22
same,Kinase activity,[6]; Log [HX103 (M)] -8.5,52.62 and 55.81 and 54.21
same,Kinase activity,[6]; Log [HX103 (M)] -9,85.4 and 76.53 and 77.56
same,IC50,[6]; n = 3,0.004 µM
same,"Fluorescence intensity, DEL19",[7]; wavelength 666 nm,6329.64
same,"Fluorescence intensity, DEL19",[7]; wavelength 669 nm,5943.64
same,"Fluorescence intensity, DEL19",[7]; wavelength 671 nm,5458.74
same,"Fluorescence intensity, DEL19",[7]; wavelength 673 nm,4903.02
same,"Fluorescence intensity, DEL19",[7]; wavelength 676 nm,4330.47
same,"Fluorescence intensity, DEL19",[7]; wavelength 678 nm,3796.5
same,"Fluorescence intensity, DEL19",[7]; wavelength 681 nm,3356.07
same,"Fluorescence intensity, DEL19",[7]; wavelength 683 nm,3030.49
same,"Fluorescence intensity, DEL19",[7]; wavelength 686 nm,2784.09
same,"Fluorescence intensity, DEL19",[7]; wavelength 688 nm,2575.72
same,"Fluorescence intensity, DEL19",[7]; wavelength 690 nm,2364.25
same,"Fluorescence intensity, DEL19",[7]; wavelength 693 nm,2121.24
same,"Fluorescence intensity, DEL19",[7]; wavelength 695 nm,1850.71
same,"Fluorescence intensity, DEL19",[7]; wavelength 698 nm,1561.85
same,"Fluorescence intensity, DEL19",[7]; wavelength 700 nm,1263.82
same,Fluorescence intensity at 570 nm,"[7]; Fig. 2d, HX103 with EGFR 19del, n=1-3",101.138 and 103.905 and 84.1794
same,fluorescence turn-on response,[7]; [14],high fluorescence
same,Kd,[7]; [15],1.1 ± 0.2 µM
same,Fluorescence response of HX103 to EGFR 19del,"[7]; EGFR 0.1 µM, n=1-3",2.201 and 2.149 and 2.11
same,Fluorescence response of HX103 to EGFR 19del,"[7]; EGFR 1 µM, n=1-3",5.519 and 5.544 and 5.826
same,Fluorescence response of HX103 to EGFR 19del,"[7]; EGFR 5 µM, n=1-3",8.2406 and 9.498 and 10.3034
same,Fluorescence response of HX103 to EGFR 19del,"[7]; EGFR 6 µM, n=1-3",10.0143 and 10.322 and 11.4127
same,IC50 at 48 h,[8],26 µM
same,"Fluorescence intensity, HX103+EGFR",[9]; wavelength 666 nm,3266.47
same,"Fluorescence intensity, HX103+EGFR",[9]; wavelength 669 nm,3104.58
same,"Fluorescence intensity, HX103+EGFR",[9]; wavelength 671 nm,2932.33
same,"Fluorescence intensity, HX103+EGFR",[9]; wavelength 673 nm,2750.71
same,"Fluorescence intensity, HX103+EGFR",[9]; wavelength 676 nm,2569.21
same,"Fluorescence intensity, HX103+EGFR",[9]; wavelength 678 nm,2397.75
same,"Fluorescence intensity, HX103+EGFR",[9]; wavelength 681 nm,2246.21
same,"Fluorescence intensity, HX103+EGFR",[9]; wavelength 683 nm,2119.91
same,"Fluorescence intensity, HX103+EGFR",[9]; wavelength 686 nm,2016.43
same,"Fluorescence intensity, HX103+EGFR",[9]; wavelength 688 nm,1932.61
same,"Fluorescence intensity, HX103+EGFR",[9]; wavelength 690 nm,1865.3
same,"Fluorescence intensity, HX103+EGFR",[9]; wavelength 693 nm,1811.29
same,"Fluorescence intensity, HX103+EGFR",[9]; wavelength 695 nm,1767.27
same,"Fluorescence intensity, HX103+EGFR",[9]; wavelength 698 nm,1729.9
same,"Fluorescence intensity, HX103+EGFR",[9]; wavelength 700 nm,1695.87
